Values of other authors in US10828311B2, “Controlled release compositions and their methods of use” (BAYER NEW ZEALAND LTD, priority 2012, dated 2020).
Values after ≈ are worked out from the molar mass of the structure shown.

Test system: microbes
Details: for Cloxacillin in New Zealand

- MIC90: 0.5 µg/mL (≈ 1.15 µM)
Compound: Cc1onc(-c2ccccc2Cl)c1C(=O)N[C@@H]1C(=O)N2[C@@H]1SC(C)(C)[C@@H]2C(=O)O [Cloxacillin, cloxacillin]
